From patent US20180074077A1, “A METHOD FOR MEASURING THE PROTEASE ACTIVITY OF FACTOR D OF THE ALTERNATIVE COMPLEMENT PATHWAY” (priority 2015, published 2018)

Tests used:
C5 convertase = C5 convertase activity on bio-C3b spheres, C5a measured with ECL assay; format: biochemical; settings: for ECL signal (amount of C5a produced by C5 convertase): C5 100 nM, 60 min
Procedure: The bio-C3b binding to streptavidin was performed in a 2.0 ml micro-centrifuge tube. Two hundred and forty μg of SPHEROTECH beads, 0.3 mm diameter. Streptavidin coated spheres were first washed by centrifugation with 300 μL of 10 mM Tris, pH 8, and then resuspended in 200 μL of 10 mM Tris, pH 8. The spheres were incubated with bio-C3b or C3b at a concentration of 320 nM. Spheres were suspended by gentle shaking at 1350 RPM for 20 minutes at room temperature, and collected by centrifugation at 16 RCF for 10 minutes. The residual supernatant was removed and the beads were then washed to remove residual unbound bio-C3b.
C5 convertase was formed on the spheres by incubating the bio-C3b spheres with a Convertase Solution that included components of the AP, a divalent cation and buffer. The Convertase Solution consisted of Factor D, (10 nM), Factor B (400 nM), and NiCl2 (200 μM) in 10 mM Tris, pH 8.0. The spheres were suspended by gentle shaking at 1350 RPM for 20 minutes at 37° C. The spheres were centrifuged at 16×g (RCF) for 10 minutes, the supernatant is removed, and the spheres are resuspended in 1.2 ml of 10 mM Tris pH 8, 1 mM EDTA to a final concentration of 200 μg/ml.
Formation of C5a was accomplished by incubating C5, and the spheres in a Reaction Solution that included a divalent cation. The Reaction Solution was prepared by transferring to a microplate well: (i) 2 μg of spheres with C5 convertase in 10 μl of the Convertase Solution; (ii) 20 μL of a 500 μM NiCl2 solution; and (iii) 20 μL of a 250 nM solution of C5 (5 pmoles). […] Following the incubation, the reaction was stopped by adding 10 μL of a 500 mM EDTA in 10 mM Tris, pH=8.0; (Total Volume=60 μl).
The amount of C5a in the Reaction Solution was measured with an Elisa-like assay, similar to an ELISA. The neo-epitope anti-C5a antibody, BNJ383, captured soluble C5a, binding it to a well in a microplate. BNJN383 has a high affinity for C5a but a low affinity for C5. The detection reagent was a mouse anti-C5a antibody that binds the C5a captured on the plate, and a SULFO-TAG™ modified anti-mouse secondary antibody that bound the mouse antibody, and generated an ECL signal.
To wells of a high binding 96-well microplate (MSD Catalog No. L15XB-3) was added BNJ383 (0.3 pmoles,) 2 μg/mL in 25 μL of a carbonate-bicarbonate buffer at pH 9.4. The microplate was sealed and incubated at 37′C for 60 minutes. […]
The wells were sealed with a foil seal and incubated in the dark for 30 minutes. […] One hundred and fifty μL of 2×MSD Read Buffer containing tripropylamine as an electron carrier was added to the wells using a negative pipetting technique. The microplate was read on an MSD imager to measure the ECL signal generated by the SULFO-TAG™ affixed to the goat secondary antibody. […]

Factor D = target: T1, Factor D (Homo sapiens, UniProt P00746); assay: BLI biosensor assay of Factor D cleavage of Factor B, anti-Bb antibody binding; format: biochemical
T1 construct: purchased COMPTECH (Tyler Tex.)
T1 sequence (P00746 26-253): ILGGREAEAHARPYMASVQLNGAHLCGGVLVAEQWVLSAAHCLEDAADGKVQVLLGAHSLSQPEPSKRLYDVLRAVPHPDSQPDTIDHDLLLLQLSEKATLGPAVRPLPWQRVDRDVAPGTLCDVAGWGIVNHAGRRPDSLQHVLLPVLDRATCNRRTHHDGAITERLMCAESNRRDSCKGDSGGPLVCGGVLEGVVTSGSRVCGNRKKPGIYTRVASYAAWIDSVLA
Procedure: All measurements were recorded on an OCTET® RED System set to the advanced quantitation mode. The biosensors were SA-Streptavidin DIP AND READ™ configured to a 96-well microplate format (FORTEBIO). All loading volumes were 200 μl.
Eight streptavidin-coated biosensors were incubated with bio-C3b (10 μg/ml), and Factor B (0.6 μM) in Kinetics Buffer with 1 mM NiCl2 for 6 minutes.
To form bio-C3b/Bb, each biosensor was loaded with a mixture of BioC3b (10 μg/mL), factor B (600 nM) and Ni^2+ (1 mM) in Kinetics Buffer. […] The incubation time was 2 minutes.
The presence of Bb on the biosensor was detected by loading the biosensors with 55 nM of an anti-Bb antibody (Quidel, A227) and 55 nM Goat anti-mouse secondary antibody in Kinetics Buffer. The incubation time was 2 minutes.
From time 0 to about 360 seconds (˜6 minutes), the 269 kDa bio-C3b/Factor B complex formed on the streptavidin coated biosensor. […] From about 360 to about 480 seconds (˜2 minutes), Factor D cleaved Factor B into fragments Ba and Bb. […] The binding of the 300 kDa primary and secondary antibody complex to the Bb fragment was recorded as a positive wavelength shift from about 600 to 720 seconds (˜2 minutes).

Molecule | Effect on convertase activity (in words) (C5 convertase; OmCI 50 nM) | ECL signal (amount of C5a produced by C5 convertase) (C5 convertase; OmCI 50 nM) | drop of ECL signal (C5 convertase; OmCI 100 nM) [fold] | ECL signal (amount of C5a produced by C5 convertase) (C5 convertase; OmCI 100 nM) | Effect on Factor D activity (in words) (Factor D; DCIC 23 μM and 35 μM) | Inhibition of Factor D (in words) (Factor D; DCIC 178 μM, 267 μM and 400 μM)
OmCI: tick saliva complement inhibitor, a C5 binding protein | essentially no effect | 40,000 | 8 | 5000 |  | 
O=c1oc(Cl)c(Cl)c2ccccc12 [DCIC, 3,4-Dichloroisocoumarin] |  |  |  |  | minimal effect | maximally inhibited
